Experimental findings from ChEMBL document CHEMBL1134101, “The cyclohexene ring as bioisostere of a furanose ring: synthesis and antiviral activity of cyclohexenyl nucleosides” (Bioorg Med Chem Lett, 2001) are described below.

In experiment [1] the test system is Cytomegalovirus. In words: Effective concentration required against HCMV AD169 for antiviral activity. It counts as functional, organism-based, Human betaherpesvirus 5.
The test system of experiment [2] is Cytomegalovirus. In words: Tested for antiviral activity against HCMV (AD169). It counts as functional, organism-based, Human betaherpesvirus 5.
Experiment [3] deals with Human alphaherpesvirus 1. In words: Tested for antiviral activity against HSV-1 (KOS). It counts as functional, organism-based.
The next experiment relates to Human alphaherpesvirus 2. In words: Tested for antiviral activity against HSV-2 (G). The class given is functional, organism-based.
Experiment [4] concerns Human alphaherpesvirus 3. Description: Tested for antiviral activity against VZV ([…]). The class given is functional, organism-based.
Experiment [5] concerns Human alphaherpesvirus 3. In words: Tested for antiviral activity against VZV (YS). It counts as functional, organism-based.
For a further experiment, the system named is Hepatitis B virus. Description: Tested for antiviral activity against HBV (Hep AD79). It counts as functional, organism-based.
Experiment [6] has as its system Human alphaherpesvirus 1. In words: Tested for antiviral activity against HSV-1 (TK-KOS). The class given is functional, organism-based.
Experiment [7] has as its system Cytomegalovirus. Description: Effective concentration required against HCMV strain for antiviral activity. It counts as functional, organism-based. To be noted: Human betaherpesvirus 5.
Setting [8] is: Human alphaherpesvirus 1, read-out: IC50.
Where [9] appears, read: Human alphaherpesvirus 2, read-out: IC50.
[10] abbreviates: Hepatitis B virus, read-out: IC50.
The mark [11] stands for this setting: Human betaherpesvirus 5, read-out: EC50.

≈ marks a conversion by molar mass, not a printed value.

With `Nc1nc(O)c2ncn(C3C=CC(CO)C(O)C3)c2n1` (stereo in doubt; form 1), in the experiment with Cytomegalovirus [1], the EC50 was determined as 0.47 µg/mL (≈ 1.7 µM). For the same molecule, the IC50 stood at 0.6 µg/mL (≈ 2.16 µM) with Cytomegalovirus [2]; 0.002 µg/mL (≈ 0.00721 µM) in the experiment on Human alphaherpesvirus 1 [3]; 0.05 µg/mL (≈ 0.18 µM) in the experiment on Human alphaherpesvirus 2; 2.1 µg/mL (≈ 7.57 µM) with Human alphaherpesvirus 3 [4]; 0.49 µg/mL (≈ 1.77 µM) with Human alphaherpesvirus 3 [5]; 3 µg/mL (≈ 10.8 µM) in the experiment with Hepatitis B virus. The IC50 in the experiment on Human alphaherpesvirus 1 [6] was found to be 0.38 µg/mL (≈ 1.37 µM).

Turning to `Nc1nc(O)c2ncn(C3C=CC(CO)C(O)C3)c2n1` (stereo in doubt; form 2), in the experiment with Cytomegalovirus [1], the EC50 stood at 1.05 µg/mL (≈ 3.79 µM). In addition, the IC50 with Cytomegalovirus [2] worked out at 1.5 µg/mL (≈ 5.41 µM); in the experiment with Human alphaherpesvirus 1 [3] (setting [8]), 0.003 µg/mL (≈ 0.0108 µM); in the experiment on Human alphaherpesvirus 2 (setting [9]), 0.07 µg/mL (≈ 0.252 µM); in the experiment on Human alphaherpesvirus 3 [4], 5.8 µg/mL (≈ 20.9 µM); in the experiment on Human alphaherpesvirus 3 [5], 1.2 µg/mL (≈ 4.33 µM); in the experiment with Hepatitis B virus (setting [10]), 3 µg/mL (≈ 10.8 µM). The molecule also showed an IC50 with Human alphaherpesvirus 1 [6] of 1.28 µg/mL (≈ 4.62 µM).

Regarding `Nc1nc2c(ncn2COCCO)c(=O)[nH]1` [ACYCLOVIR], the EC50 in the experiment on Cytomegalovirus [1] (setting [11]) and in the experiment on Cytomegalovirus [7] was 16 µg/mL (≈ 71 µM) in each case. Further, the IC50 is 0.01 µg/mL (≈ 0.0444 µM) in the experiment with Human alphaherpesvirus 1 [3] (setting [8]), 0.02 µg/mL (≈ 0.0888 µM) in the experiment on Human alphaherpesvirus 2 (setting [9]), greater than 50 µg/mL with Hepatitis B virus (setting [10]) and 9.6 µg/mL (≈ 42.6 µM) in the experiment on Human alphaherpesvirus 1 [6] (setting [8]).

For `Nc1nc2c(ncn2COC(CO)CO)c(=O)[nH]1` [GANCICLOVIR], the EC50 with Cytomegalovirus [1] (setting [11]) came to 0.77 µg/mL (≈ 3.02 µM). In addition, the IC50 worked out at 0.6 µg/mL (≈ 2.35 µM) with Cytomegalovirus [2] (Human betaherpesvirus 5, read-out: IC50); 0.001 µg/mL (≈ 0.00392 µM) in the experiment with Human alphaherpesvirus 1 [3] (setting [8]); 0.002 µg/mL (≈ 0.00784 µM) with Human alphaherpesvirus 2 (setting [9]); 45 µg/mL (≈ 176 µM) with Hepatitis B virus (setting [10]); 0.48 µg/mL (≈ 1.88 µM) in the experiment on Human alphaherpesvirus 1 [6] (setting [8]).

For orientation: EC50 means the midpoint of the concentration-response curve. By IC50 is commonly meant the concentration at which inhibition is half-maximal.
